The values below come from ChEMBL document CHEMBL1141988, “Bis(aminopyrrolidine)-derived ureas (APUs) as potent MCH1 receptor antagonists” (Bioorg Med Chem Lett, 2005).

Broadly, the Ki is a dissociation constant, usually derived from enzyme kinetics or from competition with a known ligand. A high value points to weaker binding.

The assay deals with Melanin-concentrating hormone receptor 1 (Homo sapiens, UniProt Q99705). The assay is described as follows: Displacement of [125I]MCH from human Melanin-concentrating hormone 1 (MCH1) receptor modified for optimal expression in HEK293 cells. In kind it is cell-based. A general note: In a radioligand displacement assay an active substance lowers the binding of a labelled ligand.
Melanin-concentrating hormone receptor 1, sequence (Q99705 whole entry): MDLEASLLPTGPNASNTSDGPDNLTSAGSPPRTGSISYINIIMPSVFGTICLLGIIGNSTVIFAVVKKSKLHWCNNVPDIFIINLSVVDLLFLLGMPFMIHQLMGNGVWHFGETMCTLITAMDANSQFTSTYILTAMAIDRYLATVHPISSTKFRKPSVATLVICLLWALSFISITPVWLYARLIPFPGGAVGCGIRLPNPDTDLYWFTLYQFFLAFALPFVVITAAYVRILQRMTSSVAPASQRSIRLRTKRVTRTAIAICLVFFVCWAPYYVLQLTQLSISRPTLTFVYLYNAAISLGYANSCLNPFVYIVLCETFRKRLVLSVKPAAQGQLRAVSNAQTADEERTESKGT
Molecule `CN(C(=O)c1ccc(-c2ccc(C(F)(F)F)cc2)cc1)C1CCN(C(=O)N(C)C2CCN(CCS(=O)(=O)N3CCCC3)C2)C1` (centres undefined) displayed a Ki of 82 nM. In turn, `CN(C(=O)c1ccc(-c2ccc(C(F)(F)F)cc2)cc1)C1CCN(C(=O)N(C)C2CCN(CCOc3ccc(Cl)cc3)C2)C1` (centres undefined) yielded a Ki of 18 nM. Under `CN(C)CC1CCc2cc(NC(=O)c3ccc(-c4ccc(F)cc4)cc3)ccc2C1` (centres undefined) stands 5.5 nM. To `CN(C(=O)c1ccc(-c2ccc(C(F)(F)F)cc2)cc1)C1CCN(C(=O)N(C)C2CCN(CCS(=O)(=O)c3ccc(Cl)cc3)C2)C1` (centres undefined) belongs 14 nM; to `CN(C(=O)c1ccc(-c2ccc(C(F)(F)F)cc2)cc1)C1CCN(C(=O)N(C)C2CCN(CCCc3ccc(Cl)cc3)C2)C1` (centres undefined), 7.3 nM; to `CN1CCC(N(C)C(=O)CCCN(C)C(=O)c2ccc(-c3ccccc3)cc2)C1` (centres undefined), 142 nM. `CN(C(=O)c1ccc(-c2ccc(C(F)(F)F)cc2)cc1)C1CCN(C(=O)N(C)C2CCN(CCO)C2)C1` (centres undefined): the affinity corresponds to a Ki of 96 nM. Under `CN(C(=O)CCCC(=O)c1ccc(Cl)cc1)C1CCN(C(=O)N(C)C2CCN(CCCc3ccccc3)C2)C1` (centres undefined) stands 48 nM; under `CN(C(=O)c1ccc(Oc2ccc(F)cc2)cc1)C1CCN(C(=O)N(C)C2CCN(CCCc3ccc(Cl)cc3)C2)C1` (centres undefined), 5.3 nM.
